In US20260174863A1, “ISOMERICALLY PURE BETA-CYCLODEXTRIN DERIVATIVES AND USES THEREOF” (Beren Therapeutics P.B.C., priority 2023, published 2026):

What was measured:
[1] = test system: differentiated human THP-1 monocytes; assay: CEC - Cholesterol Efflux Assay (abcam ab196985); format: cell-based; details: 4 h, reference standard = non-isomerically pure hydroxypropyl beta-cyclodextrin
Protocol: Cholesterol Efflux from differentiated human THP-1 monocytes was assessed according to the manufacturer's protocol (abcam, ab196985). Briefly, THP-1 monocytes were differentiated for 48 h in presence of 100 nM phorbol 12-myristate-13-acetate (PMA) in RPMI 1640 growth medium (10% FCS, 1% penicillin/streptomycin) in a humidified incubator (37° C., 5% CO2). Differentiated THP-1 macrophage-like cells were harvested, washed with PBS, resuspended in growth medium, seeded at 1×10^5 cells into 96-well plates, and allowed to adhere for 6h. Cells were washed with serum-free RPMI media, and labelled with 100 μL of fluorescent cholesterol labelling medium (50 uL Labeling Reagent+50 uL serum-free RPMI) for 1 h protected from light. Labeling medium was removed and replaced with 100 μL, 37° C. pre-warmed equilibration medium (50 uL Equilibration Buffer+[…] Reagent A +10 μL/mL Reagent B+50 uL serum-free RPMI) and incubated for 16±1 h in an incubator (37° C., 5% CO2). Equilibration medium was removed, and cells were washed with RPMI (w/o phenol red, w/o serum). Serum cholesterol acceptor was prepared by mixing 2 parts of Serum Treatment Reagent with 5 parts of human serum, incubated on ice for 20 minutes. The mix was centrifuged at 9,000×g for 10 minutes at 4° C., and supernatants were stored on ice until use. THP-1 cells were incubated for 4 h with 100 uL RPMI media (w/o phenol red, w/o serum), spiked with 10 uL of compound (10× stock in PBS) and 2 uL serum acceptor (2%), or RPMI media spiked with 10 uL PBS and 2 uL serum acceptor (negative control). Following incubation, plates were centrifuged and whole supernatants were transferred to an opaque 96-well plate. Remaining cells were lysed by adding 100 μL of Cell Lysis Buffer and shaking at 500 rpm for 25 minutes protected from light. Cell lysate was resuspended and transferred into an opaque 96-well. Plates containing supernatants or cell lysates were measured in a plate reader at 485 nm (excitation) and 523 nm (emission). Percent (%) cholesterol efflux was measured as RFU supernatant/(RFU supernatant +RFU cell lysate)×100%.
The cholesterol efflux from cells treated with compounds of the disclosure at concentrations of 0.1 mM, 0.3 mM and 1 mM, relative to cholesterol efflux from cells treated with a reference standard, are summarized in Table 1. In the table, A denotes compounds with a CEC of >126% of that of the reference standard and B denotes compounds with a CEC of 106% to 125% of that of the reference standard; 0 denotes compounds with a CEC of 96%-105% of that of the reference standard; and—denotes compounds with a CEC of 75%-95% of that of the reference standard. The reference standard is a non-isomerically pure hydroxypropyl beta-cyclodextrin.

[2] = test system: differentiated human THP-1 monocytes; assay: Cytotoxicity assay, lactate dehydrogenase (LDH) release (CytoTox 96, Promega G1780); format: cell-based; details: samples from CEC assay, reference standard = non-isomerically pure hydroxypropyl beta-cyclodextrin
Protocol: Cytotoxicity was measured using a lactate dehydrogenase (LDH) assay, according to the manufacturer's protocol (CytoTox 96® Non-Radioactive Cytotoxicity Assay, Promega, G1780). Supernatants and cell lysates from CEC assay served as samples. Briefly, 50 uL of supernatant and cell lysates were transferred into separate transparent 96-well plates. 50 uL CytoTox 96© Reagent was added to the wells, mixed by pipetting, and incubated for 10 minutes protected from light. 50 μL of Stop Solution was added, mixed by pipetting, and absorbance (OD) was measured at 490 nm in a plate reader. Phenol red-free RPMI with 10% […] and Cell Lysis Buffer (abcam, ab196985) served as background controls. Percent (%) cytotoxicity was measured as OD supernatant/(OD supernatant+OD cell lysate)×100%.
Lactate dehydrogenase (LDH) released from cells treated with compounds of the disclosure at concentrations of 0.1 mM, 0.3 mM and 1 mM, relative to LDH) released from cells treated with a reference standard, are summarized in Table 2. In the table, A denotes compounds releasing LDH in an amount of <70% of that of the reference standard; B denotes compounds releasing LDH in an amount of 71-95% of that of the reference standard; 0 denotes compounds releasing LDH in an amount of 96%-105% of that of the reference standard; +denotes compounds releasing LDH in an amount of 106%-120% of that of the reference standard; and ++denotes compounds releasing LDH in an amount of >120% of that of the reference standard The reference standard is a non-isomerically pure hydroxypropyl beta-cyclodextrin.

Compound: CC(C)(O)CO[C@@H]1[C@@H](O)[C@H]2O[C@H]3[C@H](OCC(C)(C)O)[C@@H](O)[C@@H](O[C@H]4[C@H](OCC(C)(C)O)[C@@H](O)[C@@H](O[C@H]5[C@H](OCC(C)(C)O)[C@@H](O)[C@@H](O[C@H]6[C@H](OCC(C)(C)O)[C@@H](O)[C@@H](O[C@H]7[C@H](OCC(C)(C)O)[C@@H](O)[C@@H](O[C@H]8[C@H](OCC(C)(C)O)[C@@H](O)[C@@H](O[C@@H]1[C@@H](CO)O2)O[C@@H]8CO)O[C@@H]7CO)O[C@@H]6CO)O[C@@H]5CO)O[C@@H]4CO)O[C@@H]3CO [Compound 6]
- Cholesterol efflux from cells treated with compounds, relative to reference standard ([1]; 0.1 mM): 0 (0 denotes compounds with a CEC of 96%-105% of that of the reference standard)
- Cholesterol efflux from cells treated with compounds, relative to reference standard ([1]; 0.3 mM): − (—denotes compounds with a CEC of 75%-95% of that of the reference standard)
- Cholesterol efflux from cells treated with compounds, relative to reference standard ([1]; 1 mM): − (—denotes compounds with a CEC of 75%-95% of that of the reference standard)
- Release of lactate dehydrogenase from cells treated with compounds, relative to reference standard ([2]; 0.1 mM): 0 (0 denotes compounds releasing LDH in an amount of 96%-105% of that of the reference standard)
- Release of lactate dehydrogenase from cells treated with compounds, relative to reference standard ([2]; 0.3 mM): + (+denotes compounds releasing LDH in an amount of 106%-120% of that of the reference standard)
- Release of lactate dehydrogenase from cells treated with compounds, relative to reference standard ([2]; 1 mM): + (+denotes compounds releasing LDH in an amount of 106%-120% of that of the reference standard)
